According to US4518606A, “Pharmaceutical compositions” (Beecham Group Limited, priority 1979, dated 1985):

What was measured:
Type in all cases: in vivo
mice = experiment: acute toxicity, intramuscular, mice; conditions: 750 mg/kg in 3% solution (25 ml/kg)
Method: (§1) No mortality is observed in mice or rats treated at the rate of 750 mg/kg of benzyl alcohol in 3% solution (viz 25 ml/kg of solution) by the intramuscular route.

rats [1] = experiment: acute toxicity, intramuscular, rats; conditions: 750 mg/kg in 3% solution (25 ml/kg)
Method: as §1

rats [2] = experiment: sub-acute toxicity, intramuscular, 2 weeks, male and female rats; conditions: 150 mg/kg (5 ml/kg of 3% solution)
Method: Over a period of 2 weeks, 10 male rats and female rats receive 150 mg/kg of benzyl alcohol, that is to say 5 ml/kg of 3% aqueous solution by the intramuscular route. […] Within the context of the anatomopathological examination, the liver, kidneys, spleen, lungs, suprarenals, testicles and ovaries are normal.

For `OCc1ccccc1` [benzyl alcohol], the mortality (mice) was “No mortality”, the mortality (rats [1]) was “No mortality” and the abnormal symptoms (rats [2]) was “No abnormal symptom appears”. The “anatomopathological examination (liver, kidneys, spleen, lungs, suprarenals, testicles and ovaries)” value (rats [2]) was “normal”, the haematological variations (rats [2]) was “within the limits of physiological variations” and the “variations in blood and urine biochemistry” value (rats [2]) was “within the limits of physiological variations”. For the same molecule, the variations in weight (rats [2]) was “within the limits of physiological variations”.
